Data set [1] is described as follows: Aqueous kinetic solubility in PBS pH 7.4. The data set is classed as physicochemical. The settings on record: phosphate buffered saline (PBS); aqueous kinetic solubility from 10 mM DMSO solution in PBS pH 7.4; target concentration 250 μM (final DMSO 2.5%). As to the method:
1. Aqueous kinetic solubility.
30 µL aliquots of 10 mM DMSO stock solution of the test compound were incubated in Phosphate
Buffered Saline (PBS) at pH 7.4 at 25°C for 24h. After centrifugation the dissolved compound in the
supernatant was quantified by LC-MS/MS.
Aqueous kinetic solubility was determined by UV quantification at
215 nm. […]

Data set [2] is described as follows: In vitro metabolic stability in mouse liver microsomes. To be noted: tissue homogenate, pH 7.4. As to the method:
1. Aqueous kinetic solubility. […]
3. In vitro mouse microsomial stability. […]
microsomes (Sekisui Xenotech, LCC), 0.1M Tris-HCl buffer (pH 7.4), and 10% DMSO. The final […]
After pre-incubation, the cofactors (NADPH, G6P, G6PDH, MgCl2 pre-dissolved in 0.1M Tris-HCl) were added to the incubation mixture and the incubation was continued at 37 °C for 1h. At each time point (0, 5, 15, 30, 60 min), 30µL of incubation mixture was diluted with 200 µL cold acetonitile spiked with 200 nM of warfarin as internal standard, followed by centrifugation at 3500 g for 30 min. The supernatant was further diluted with H2O (1:1) for analysis.
An aliquot of 200 µl of the supernatant was removed, and the concentration of the test compound was […]
quantified by LC-MS/MS. The percentage of the test compound remaining at each time point relative […]
to t=0 was calculated. The half-lives (t½) were determined by a one-phase decay equation using a […]
non-linear regression of compound concentration vs time.

Another data set concerns the target T1, NKCC1 (Homo sapiens, UniProt P55011).
T1 construct: host or cells: HEK293
T1 sequence (P55011 1-1212): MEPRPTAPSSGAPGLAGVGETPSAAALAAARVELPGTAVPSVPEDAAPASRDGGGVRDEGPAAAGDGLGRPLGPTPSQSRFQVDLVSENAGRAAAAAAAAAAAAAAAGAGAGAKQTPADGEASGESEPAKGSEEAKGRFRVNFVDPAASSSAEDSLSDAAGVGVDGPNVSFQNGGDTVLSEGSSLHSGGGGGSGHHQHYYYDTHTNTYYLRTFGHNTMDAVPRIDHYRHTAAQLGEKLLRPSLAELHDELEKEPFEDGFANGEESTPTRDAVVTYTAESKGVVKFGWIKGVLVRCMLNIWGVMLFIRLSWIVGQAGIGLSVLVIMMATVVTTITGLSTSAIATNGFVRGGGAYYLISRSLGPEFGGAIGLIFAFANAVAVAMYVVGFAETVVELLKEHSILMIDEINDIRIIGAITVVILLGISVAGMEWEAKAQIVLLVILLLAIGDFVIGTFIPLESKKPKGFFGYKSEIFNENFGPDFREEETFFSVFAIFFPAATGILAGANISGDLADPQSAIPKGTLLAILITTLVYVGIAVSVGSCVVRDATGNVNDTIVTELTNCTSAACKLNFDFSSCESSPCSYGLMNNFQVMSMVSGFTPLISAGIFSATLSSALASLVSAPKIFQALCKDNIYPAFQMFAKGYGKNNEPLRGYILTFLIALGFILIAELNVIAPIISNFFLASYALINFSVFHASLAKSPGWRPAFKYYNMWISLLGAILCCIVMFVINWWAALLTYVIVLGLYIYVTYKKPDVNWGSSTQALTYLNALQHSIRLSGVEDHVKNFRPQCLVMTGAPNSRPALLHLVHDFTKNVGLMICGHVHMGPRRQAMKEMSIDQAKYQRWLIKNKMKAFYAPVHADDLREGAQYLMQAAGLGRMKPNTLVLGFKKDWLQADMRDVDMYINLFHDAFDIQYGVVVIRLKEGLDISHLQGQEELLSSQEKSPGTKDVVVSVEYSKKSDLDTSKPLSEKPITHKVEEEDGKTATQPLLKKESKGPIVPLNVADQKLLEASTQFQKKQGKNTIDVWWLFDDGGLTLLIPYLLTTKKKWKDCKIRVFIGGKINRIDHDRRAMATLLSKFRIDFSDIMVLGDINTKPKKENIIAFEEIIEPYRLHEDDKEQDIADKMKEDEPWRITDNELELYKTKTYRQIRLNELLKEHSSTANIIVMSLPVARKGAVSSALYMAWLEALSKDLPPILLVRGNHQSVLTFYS
The experiment in a line: Cl- influx assay in NKCC1-transfected HEK293 cells. The data set is classed as cell-based. To be noted: for inhibition at 10 µM: HEK293, read-out: Inhibition 10 μM Cl- influx (%); for inhibition at 100 µM: HEK293, read-out: Inhibition 100 μM Cl- influx (%); for Inhibition 10 μM Cl- influx (%) / Inhibition 100 μM Cl- influx (%): NKCC1-transfected HEK293 cells. As to the method: HEK293 cells were cultured in Dulbecco’s modified Eagle’s medium (DMEM) supplemented with 10% fetal bovine serum, 1% L-glutamine, 100 U/mL penicillin, and 100 μg/mL streptomycin and maintained at 37 °C in a 5% CO2 humidified atmosphere. To assess NKCC1 and NKCC2 activity (Cl^– influx assay), 3 million HEK cells were plated in a 10 cm cell-culture dish and transfected with a transfection mixture comprising 5 mL of DMEM, 4 mL of Opti-MEM, 8 μg of DNA plasmid coding for NKCC1 (PRK-NKCC1 obtained from Medical Research Council and the University of Dundee), NKCC2 (OriGene plasmid #RC216145) subcloned in PRK5 plasmid, or mock control (empty vector), together with 8 μg of a plasmid coding for the Cl^–-sensitive variant of the membrane-targeted fluorescent protein YFP, mbYFPQS (Addgene plasmid #80742),[53] and 32 μL of Lipofectamin 2000. To assess KCC2 activity (Tl influx assay), cells were transfected with 8 μg of KCC2[54] subcloned in the PRK5 plasmid or mock control (empty vector) and 16 μL of Lipofectamin 2000. After 4 h, the cells were collected and plated in 96-well black-walled, clear-bottomed plates at a density of 2.5 × 10^4. After 48 h, cells were used for the Cl^– or Tl influx assays. All reagents were purchased from Life Technologies, unless otherwise specified.
Transfected cells were treated with 10 μM or 100 μM bumetanide (as positive controls), DMSO (as the negative control), or with each of our compounds in 100 μL/well of a Cl^–-free hypotonic solution (67.5 mM Na^+ gluconate, 2.5 mM K^+ gluconate, 15 mM HEPES pH 7.4, 50 mM glucose, 1 mM Na2HPO4, 1 mM NaH2PO4, 1 mM MgSO4, and 1 mM CaSO4). After 30 min of incubation, plates were loaded into a Victor 3V (PerkinElmer) multiplate reader equipped with an automatic liquid injector system, and fluorescence of Cl^–-sensitive mbYFPQS was recorded with excitation at 485 nm and emission at 535 nm. For each well, fluorescence was first recorded for 20 s of the baseline and for 60 s after delivery of a NaCl concentrated solution (74 mM final concentration in the assay well). Fluorescence of Cl^–-sensitive mbYFPQS is inversely correlated to the intracellular Cl^– concentration;[53] therefore, chloride influx into the cells determined a decrease in mbYFPQS fluorescence. To represent the fluorescent traces in time, we normalized the fluorescence value for each time point to the average of the fluorescence value of the first 20 s of the baseline (ΔF/F0). To quantify the average effects as represented by the bar plots, we expressed the decrease in fluorescence upon NaCl application as the average of the last 10 s of ΔF/F0 normalized traces. Moreover, for each experiment, to account for the contribution of Cl^– changes that were dependent on transporters/exchangers other than NKCC1 or NKCC2, we subtracted the value of the last 10 s of ΔF/F0 normalized traces obtained from mock-transfected cells (either control or treated) from the respective ΔF/F0 value obtained from the cells transfected with NKCC1 or NKCC2. We then presented in the figures all the data as a percentage of the fluorescence decrease versus the value of the control DMSO.

In brackets after ≈: the same amount, converted by molar mass. Entries after “also recorded” stand apart in the source; their conditions may differ. Where only a bound is given, the exact number is not on record here.

In data set [1], `CCCCCCNc1ccc([N+](=O)[O-])cc1S(=O)(=O)NC` [Compound 3, 2-(Hexylamino)-N-methyl-5-nitro-benzenesulfonamide] yielded a solubility at 24 h of 1 µM (≈ 0.315 µg/mL). For the same molecule, the half-life at 5 μM in data set [2] is < 5 min. Besides, at NKCC1, the inhibition at 10 µM is 6.4 ± 3.4% and the inhibition at 100 µM amounted to 29.4 ± 2.8%.

The molecule `CNS(=O)(=O)c1cc([N+](=O)[O-])ccc1NCCC(C)(C)C` [Compound 4, 2-(3,3-Dimethylbutylamino)-N-methyl-5-nitro-benzenesulfonamide] yielded a solubility at 24 h in data set [1] of 3 µM (≈ 0.946 µg/mL). In data set [2], the half-life at 5 μM came out at 6 min. In addition, on NKCC1, the inhibition at 10 µM stood at 17.7 ± 3.9% and the inhibition at 100 µM worked out at 28.7 ± 4.4%.

`CCCCNc1ccc([N+](=O)[O-])cc1S(N)(=O)=O` [Compound 5, 2-(Butylamino)-5-nitro-benzenesulfonamide] had a solubility at 24 h in data set [1] of 85 µM (≈ 23.2 µg/mL). This molecule also yielded a half-life at 5 μM in data set [2] of 6 min. At NKCC1, the “Inhibition 10 μM Cl- influx (%)” value was “Inactive” and the inhibition at 100 µM is 4.7 ± 13.3%.

The molecule `CCCCCCNc1ccc([N+](=O)[O-])cc1S(N)(=O)=O` [Compound 6, 2-(Hexylamino)-5-nitro-benzenesulfonamide] showed a solubility at 24 h in data set [1] of 6 µM (≈ 1.81 µg/mL). In addition, the half-life at 5 μM in data set [2] is < 5 min. In addition, at NKCC1, the “Inhibition 10 μM Cl- influx (%)” value is listed as “no inhibitory activity; also recorded: Inactive” and the inhibition at 100 µM was 3.8 ± 5.6%.

With `CC(C)(C)CCNc1ccc([N+](=O)[O-])cc1S(N)(=O)=O` [Compound 8, 2-(3,3-Dimethylbutylamino)-5-nitro-benzenesulfonamide], on NKCC1, the “Inhibition 10 μM Cl- influx (%)” value is on record as “Inactive” and the inhibition at 100 µM came to 14.5 ± 10.6%.

Turning to `CCCCNc1ccc([N+](=O)[O-])cc1S(=O)(=O)NC` [Compound 9, 2-(Butylamino)-N-methyl-5-nitro-benzenesulfonamide], on NKCC1, the “Inhibition 10 μM Cl- influx (%)” value is “Inactive” and the inhibition at 100 µM was determined as 13.3 ± 11.4%.

As for `CCCCCCCCNc1ccc([N+](=O)[O-])cc1S(=O)(=O)NC` [Compound 10, N-Methyl-5-nitro-2-(octylamino)benzenesulfonamide], on NKCC1, the “Inhibition 10 μM Cl- influx (%)” value is listed as “Inactive” and the “Inhibition 100 μM Cl- influx (%)” value is on record as “Inactive”.

Regarding `CCCCNc1ccc([N+](=O)[O-])cc1S(=O)(=O)N(C)C` [Compound 11, 2-(Butylamino)-N,N-dimethyl-5-nitro-benzenesulfonamide], on NKCC1, the “Inhibition 10 μM Cl- influx (%)” value was “Inactive” and the inhibition at 100 µM is 15.2 ± 9.6%.

Regarding `CCCCCCCCNc1ccc([N+](=O)[O-])cc1S(=O)(=O)N(C)C` [Compound 13, N,N-Dimethyl-5-nitro-2-(octylamino)benzenesulfonamide], on NKCC1, the “Inhibition 10 μM Cl- influx (%)” value was “Inactive” and the “Inhibition 100 μM Cl- influx (%)” value is “Inactive”.

With `CN(C)S(=O)(=O)c1cc([N+](=O)[O-])ccc1NCCC(C)(C)C` [Compound 14, 2-(3,3-Dimethylbutylamino)-N,N-dimethyl-5-nitro-benzenesulfonamide], on NKCC1, the inhibition at 10 µM came out at 10 ± 4.9% and the inhibition at 100 µM was 17 ± 11.9%.

With `CCCCNc1ccc(C(=O)O)cc1S(N)(=O)=O` [Compound 15, 4-(Butylamino)-3-sulfamoyl-benzoic Acid], on NKCC1, the “Inhibition 10 μM Cl- influx (%)” value is listed as “Inactive” and the inhibition at 100 µM is 6.4 ± 5.3%.

As to `CC(C)(C)CCNc1ccc(C(=O)O)cc1S(N)(=O)=O` [Compound 18, 4-(3,3-Dimethylbutylamino)-3-sulfamoyl-benzoic Acid], at NKCC1, the “Inhibition 10 μM Cl- influx (%)” value was “Inactive” and the inhibition at 100 µM came to 5.1 ± 4.9%.

Regarding `CCCCNc1ccc(C(=O)O)cc1S(=O)(=O)NC` [Compound 19, 4-(Butylamino)-3-(-N-methylsulfamoyl)benzoic Acid], on NKCC1, the inhibition at 10 µM was determined as 6.4 ± 2.1% and the inhibition at 100 µM was found to be 6.2 ± 5.7%.

Turning to `CNS(=O)(=O)c1cc(C(=O)O)ccc1NCCC(C)(C)C` [Compound 22, 4-(-N-3,3-Dimethylbutylamino)-3-(methylsulfamoyl)benzoic Acid], on NKCC1, the “Inhibition 10 μM Cl- influx (%)” value is listed as “Inactive” and the inhibition at 100 µM amounted to 2.6 ± 3.5%.

On to `CCCCNc1ccc(C(=O)O)cc1S(=O)(=O)N(C)C` [Compound 23, 4-(Butylamino)-3-(-N,N-dimethylsulfamoyl)benzoic Acid], for which, on NKCC1, the inhibition at 10 µM was 2.6 ± 2.8% and the inhibition at 100 µM turned out to be 15.6 ± 5.4%.

On to `COCCCCCCNc1ccc(C(=O)O)cc1S(=O)(=O)N(C)C` [Compound 31, 3-(-N,N-Dimethylsulfamoyl)-4-(6-methoxyhexylamino)benzoic Acid], for which the solubility at 24 h in data set [1] was > 250 µM. Further, on NKCC1, the “Inhibition 10 μM Cl- influx (%)” value is given as “did not show any NKCC1 inhibition; also recorded: Inactive” and the “Inhibition 100 μM Cl- influx (%)” value is recorded as “did not show any NKCC1 inhibition; also recorded: Inactive”.

Values taken from PMC8311653, “Design, Synthesis, In Vitro and In Vivo Characterization of Selective NKCC1 Inhibitors for the Treatment of Core Symptoms in Down Syndrome” (Journal of Medicinal Chemistry, 2021).
